The results in this text go back to patent US20090247520A1, “INHIBITORS OF ANTIGEN RECEPTOR-INDUCED NF-kappa B ACTIVATION” (The Burnham Institute for Medical Research, priority 2008, published 2009).

Like-named read-outs stand apart in the source and are kept apart here.

Type in all cases: cell-based
For test [1], the system named is PMA/Ionomycin-induced NF-κB reporter gene activity. The test is described as follows: Transient transfection NF-κB-luciferase reporter assay (episomal plasmid), PMA/Ionomycin. Particulars: not shown. The protocol:
Dual-luciferase assay for NF-κB activity. Cells seeded in 96 well black plates were co-transfected with Renilla luciferase plasmid and NF-κB-responsive firefly luciferase reporter gene plasmid, with pcDNA3 control or plasmids encoding various desired proteins, using Lipofectamine 2000. The culture medium was aspirated and cells were washed with PBS, prior to adding 50 μL per well of Passive Lysis Buffer (Promega), followed by addition of Dual-luciferase assay reagent (Promega) and measurement of firefly and renilla luciferase activity, using a spectrofluorimeter.

The subject of test [2] is TNF-α-induced IKK-β phosphorylation. The test is described as follows: TNF-α-induced IKK-β phosphorylation in HEK293 cells. As to conditions: 4 μM.
The subject of test [3] is phosphorylation of CARMA1. The test is described as follows: PMA-induced CARMA1 phosphorylation in HEK293 cells (immunoblot). As to conditions: CID-2858522 4 μM. On the procedure:
FIG. 7. CID-285852 inhibits IKKβ phosphorylation induced by PKC activators. (A) HEK293 cells were cultured in 0.5% FBS medium for 24 h and then treated with CID-2858522 (4 μM) or PKC inhibitor, Bisindolylmaleimide I (1 μM) for 2 hrs followed by PMA/Ionomycin (10 ng/mL; 5 ng/mL) for 2 h. Cell lysates were subjected to immunoprecipitation using anti-CARMA1 antibody and analyzed by immunoblotting with anti-phospho-CARMA1 antibody or anti-CARMA1 antibody. (B-E) HEK293 cells were transfected with plasmids encoding myc-CARMA1 in combination with plasmids encoding various other proteins including Caspase-8 (cys287ala) (B), HA-IKK-γ (C), HA-TAK1 (D), and TRAF6 (E). After 36 h. cells were cultured in 0.5% FBS medium for 12 h and then treated with CID-2858522 (4 μM) or Bisindolylmaleimide I (1 μM) for 2 hrs, followed by PMA/Ionomycin treatment (10 ng/mL; 5 ng/mL) for 2 hrs. Cell lysates were immunoprecipated using anti-myc antibody and analyzed by immunoblotting using anti-Caspase8 (B), anti-HA (C,D), or anti-TRAF6 (E) antibodies. […] Cell lysates were normalized for protein content and analyzed by immunoblotting using anti-FLIP and anti-alpha-tubulin antibodies. […] Cell lysates were immunoprecipitated using anti-IKK-β and analyzed by immunoblotting using anti-phospho-IKK-β antibody or anti-IKK-β antibody (as loading control). […]

Test [4] concerns PDB-induced NF-κB reporter gene activity. The test is described as follows: PDBu-induced NF-κB reporter gene activity in HEK293 cells. As to conditions: Homo sapiens. The protocol:
(§1) (A) Structures of two hit compounds, CID-2858522 (left) and CID-2998237 (right) are shown; (B, C) 293-NF-κB-luc cells were pretreated for 2 hrs with various concentration of either CID-2858522 (B) or CID-29982387 (C) and then stimulated with TNF (10 ng/mL) or PMA/lonomycin (10 ng/mL; 5 ng/mL) for 16 h. Luciferase activity was measured and data were expressed as a percentage relative to control treatment with DMSO only (mean±SD; n=3). (D) 293-NF-κB-luc cells were pretreated for 2 h with various concentrations of CID-2858522 or CID-2998237, then stimulated with PMA/lonomycin for 16 h. IL-8 release into the medium was measured, expressing data as a percentage relative to control cultures treated with DMSO (mean±SD; n=3). (E) 293-NF-κB-luc cells were pretreated with CID-2858522 and then stimulated with PDBu for 16 h, IL-8 production and NF-κB luciferase activity were measured as above. (F) 293-NF-κB-luc cells were pretreated for 2 h with various concentrations of CID-2858522 or a PKC inhibitor (Bisindolylmaleimide I) at 1 μM followed by PMA/Ionomycin (10 ng/mL) stimulation for 2 h, then p65-DNA-binding activity was measured in nuclear extracts (10 μg protein), expressing data as fold-increase relative to unstimulated cells (mean±SD; n=3).
HTS. […] Plates were analyzed within 30 seconds with a Criterion Analyst™ using the luminescence method (0.1 second read/well).

The subject of test [5] is PMA/Ionomycin-induced p65-RelA DNA-binding activity. The test is described as follows: NF-κB p65 DNA-binding activity, PMA/Ionomycin-stimulated HEK293 cells. On the procedure: as §1
NF-κB DNA-binding activity assays. Nuclear extracts were prepared from 10 cm^2 plates of confluent cells using a kit (Active Motif, Carsbad, Calif.). The total protein content of nuclear fractions was quantified by the Bradford method, followed by storage at −80° C. NF-κB DNA-binding activity was measured in nuclear extracts (10 μg protein) using an immunoassay method (TransAM Kit [Active Motif]) employing 96 well plates coated with double-strand oligodeoxynucleotides containing NF-κB consensus binding site (5′-[…]-3′) and anti-p65 antibody, which was detected by secondary horseradish peroxidase (HRP)-conjugated antibody, using a calorimetric substrate with absorbance read at 450 nm within 5 minutes using a spectrophotometer, SpectraMax M5 (Molecular Devices, Sunnyvale, Calif.).

As for `Cc1cc2nc(NCCCO)n(CC(=O)c3cc(C(C)(C)C)c(O)c(C(C)(C)C)c3)c2cc1C` [Compound 1, 2-(2-(3-Hydroxypropylamino)-5,6-dimethyl-1H-benzo[d]imidazol-1-yl)-1-(3,5-di-tert-butyl-4-hydroxyphenyl)ethanone], the “inhibition of NF-κB reporter in transient transfection assay” value in test [1] is reported as “potently inhibited”. Also, in test [2], the “inhibition of TNF-α-induced IKK-β phosphorylation” value is “failed to inhibit”. For the same compound, the “effect on PMA-induced phosphorylation of CARMA1” value in test [3] is listed as “no effect”. Besides, the IC50 in test [4] (read-out: IC50, PDB-induced NF-κB reporter gene activity) is 70 nM; in test [4] (read-out: IC50, PDBu-induced NF-κB reporter gene assay (cellular potency)), below 100 nM. The “concentration of maximal suppression of NF-κB DNA-binding activity” value in test [5] (HEK293) was around 1 µM. Also, the “lowest concentration with evident suppression of NF-κB DNA-binding activity” value in test [5] (HEK293) amounted to 0.1 µM. Moreover, the “inhibition of p65-RelA DNA-binding activity” value in test [5] (compared to PKC inhibitor) is listed as “only partially inhibited”.
